Experimental data reported in ChEMBL document CHEMBL5465560, “Selectivity Literature for EUbOPEN Chemogenomic Library” (2024).
One block for each compound: values may come before it.

Tests used:
[1] = target: Tyrosine-protein kinase JAK1 (Homo sapiens, UniProt P23458); assay: Selectivity interaction (KinomeScan (DiscoverX)) EUB0000607a JAK1; conditions: at 10 µM
D(1A) dopamine receptor = D(1A) dopamine receptor (Homo sapiens, UniProt P21728); assay: Selectivity interaction (Panel of kinases, GPCRs, ion channels and transporters (enzymatic assay)) EUB0000266bCl DRD1
[2] = target: T1, Aurora kinase A (Homo sapiens) (UniProt O14965); assay: Selectivity interaction (ActivX KiNativ screen (kinase selectivity in THP-1 cell lysates)) EUB0000639a STK6; format: subcellular; conditions: lysate, at 1 µM
T1 sequence (whole entry): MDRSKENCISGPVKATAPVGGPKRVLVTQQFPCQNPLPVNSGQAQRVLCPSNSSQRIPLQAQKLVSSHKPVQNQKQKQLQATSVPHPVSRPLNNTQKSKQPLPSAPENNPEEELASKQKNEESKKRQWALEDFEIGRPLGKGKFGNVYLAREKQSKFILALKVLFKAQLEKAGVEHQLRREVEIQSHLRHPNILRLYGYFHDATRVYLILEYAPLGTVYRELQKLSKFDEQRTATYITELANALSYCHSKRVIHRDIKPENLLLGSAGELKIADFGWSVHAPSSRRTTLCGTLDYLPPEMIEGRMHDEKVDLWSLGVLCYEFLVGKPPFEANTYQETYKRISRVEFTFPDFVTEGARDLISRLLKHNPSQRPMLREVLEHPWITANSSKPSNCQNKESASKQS

[3] = target: T2, Testis-specific serine/threonine-protein kinase 2 (Homo sapiens) (UniProt Q96PF2); assay: Selectivity interaction (ProQinase) EUB0000171b TSSK2
T2 sequence (whole entry): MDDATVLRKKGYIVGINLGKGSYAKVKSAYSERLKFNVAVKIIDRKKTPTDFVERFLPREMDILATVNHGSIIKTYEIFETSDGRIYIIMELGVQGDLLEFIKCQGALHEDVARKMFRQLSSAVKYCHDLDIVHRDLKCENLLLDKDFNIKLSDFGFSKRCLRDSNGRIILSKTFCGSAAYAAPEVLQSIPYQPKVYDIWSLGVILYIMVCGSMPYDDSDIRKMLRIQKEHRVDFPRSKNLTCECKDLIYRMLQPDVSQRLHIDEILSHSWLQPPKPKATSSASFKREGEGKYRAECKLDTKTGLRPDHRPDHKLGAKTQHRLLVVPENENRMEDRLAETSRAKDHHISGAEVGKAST

[4] = target: Serine/threonine-protein kinase OSR1 (Homo sapiens) (UniProt O95747); assay: Selectivity interaction (KinomeScan (DiscoverX)) EUB0000695a OXSR1; conditions: at 100 nM
[5] = target: Fibroblast growth factor receptor 2 (Homo sapiens) (UniProt P21802); assay: Selectivity interaction (KinomeScan (DiscoverX)) EUB0000595a FGFR2; conditions: at 10 µM
[6] = target: Serine/threonine-protein kinase MRCK gamma (Homo sapiens) (UniProt Q6DT37); conditions: at 10 µM
[7] = target: Cyclin-dependent kinase 11B (Homo sapiens) (UniProt P21127); assay: Selectivity interaction (KinomeScan (DiscoverX)) EUB0000595a CDK11B; conditions: at 10 µM
[8] = system: Epidermal growth factor receptor (Homo sapiens), P00533 [UNDEFINED MUTATION]; assay: Selectivity interaction (KinomeScan (DiscoverX)) EUB0001049a EGFR; conditions: at 1 µM
[9] = target: T3, Dual specificity mitogen-activated protein kinase kinase 7 (Homo sapiens) (UniProt O14733); assay: Selectivity interaction (Ambit KINOMEscan and KiNATiv profiling in Jurkat cells) EUB0000090b MAP2K7; format: cell-based; conditions: at 1 µM
T3 sequence (whole entry): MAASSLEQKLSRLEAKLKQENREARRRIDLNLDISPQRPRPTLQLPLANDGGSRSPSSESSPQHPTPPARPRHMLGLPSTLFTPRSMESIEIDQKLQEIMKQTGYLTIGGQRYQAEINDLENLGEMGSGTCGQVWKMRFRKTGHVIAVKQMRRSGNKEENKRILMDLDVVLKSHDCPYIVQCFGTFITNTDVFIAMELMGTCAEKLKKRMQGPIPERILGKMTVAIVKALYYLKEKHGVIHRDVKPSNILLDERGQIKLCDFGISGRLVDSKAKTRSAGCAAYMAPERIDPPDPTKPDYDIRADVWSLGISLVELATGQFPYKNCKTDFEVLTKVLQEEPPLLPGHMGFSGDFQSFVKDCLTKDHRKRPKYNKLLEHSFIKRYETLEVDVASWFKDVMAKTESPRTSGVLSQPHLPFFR

[10] = target: Insulin-like growth factor 1 receptor (Homo sapiens, UniProt P08069); assay: Selectivity interaction (Ambit KINOMEscan and KiNATiv profiling in Jurkat cells) EUB0000090b IGF1R; format: cell-based; conditions: at 1 µM
[11] = Selectivity interaction (KinomeScan (DiscoverX)) EUB0000655a CDPK1; conditions: at 10 µM
[12] = target: Mitogen-activated protein kinase 11 (Homo sapiens) (UniProt Q15759); assay: Selectivity interaction (KinomeScan (DiscoverX)) EUB0001079a MAPK11; conditions: at 1 µM
[13] = target: Ribosomal protein S6 kinase alpha-4 (Homo sapiens) (UniProt O75676); assay: Selectivity interaction (KinomeScan (DiscoverX)) EUB0000229b RPS6KA4; conditions: at 10 µM
[14] = target: T3, Dual specificity mitogen-activated protein kinase kinase 7 (Homo sapiens); assay: Selectivity interaction (KinomeScan (DiscoverX)) EUB0000229b MAP2K7; conditions: at 10 µM
[15] = target: Cyclin-dependent kinase 15 (Homo sapiens) (UniProt Q96Q40); assay: Selectivity interaction (KinomeScan (DiscoverX)) EUB0000618a CDK15; conditions: at 10 µM
Cyclin-dependent kinase 15 (Homo sapiens), sequence (Q96Q40 whole entry): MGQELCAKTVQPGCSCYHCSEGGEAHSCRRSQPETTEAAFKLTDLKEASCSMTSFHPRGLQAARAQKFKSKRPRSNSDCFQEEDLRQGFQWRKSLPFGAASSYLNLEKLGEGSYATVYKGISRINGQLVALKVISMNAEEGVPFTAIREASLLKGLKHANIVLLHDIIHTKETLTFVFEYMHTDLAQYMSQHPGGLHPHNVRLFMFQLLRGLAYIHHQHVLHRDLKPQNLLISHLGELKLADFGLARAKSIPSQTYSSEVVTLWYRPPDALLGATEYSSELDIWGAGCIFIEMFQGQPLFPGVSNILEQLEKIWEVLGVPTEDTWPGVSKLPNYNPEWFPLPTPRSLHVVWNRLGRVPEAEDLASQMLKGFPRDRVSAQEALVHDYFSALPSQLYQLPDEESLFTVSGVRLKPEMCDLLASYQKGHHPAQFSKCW

Cyclin-dependent kinase 11B (Homo sapiens), sequence (P21127 whole entry): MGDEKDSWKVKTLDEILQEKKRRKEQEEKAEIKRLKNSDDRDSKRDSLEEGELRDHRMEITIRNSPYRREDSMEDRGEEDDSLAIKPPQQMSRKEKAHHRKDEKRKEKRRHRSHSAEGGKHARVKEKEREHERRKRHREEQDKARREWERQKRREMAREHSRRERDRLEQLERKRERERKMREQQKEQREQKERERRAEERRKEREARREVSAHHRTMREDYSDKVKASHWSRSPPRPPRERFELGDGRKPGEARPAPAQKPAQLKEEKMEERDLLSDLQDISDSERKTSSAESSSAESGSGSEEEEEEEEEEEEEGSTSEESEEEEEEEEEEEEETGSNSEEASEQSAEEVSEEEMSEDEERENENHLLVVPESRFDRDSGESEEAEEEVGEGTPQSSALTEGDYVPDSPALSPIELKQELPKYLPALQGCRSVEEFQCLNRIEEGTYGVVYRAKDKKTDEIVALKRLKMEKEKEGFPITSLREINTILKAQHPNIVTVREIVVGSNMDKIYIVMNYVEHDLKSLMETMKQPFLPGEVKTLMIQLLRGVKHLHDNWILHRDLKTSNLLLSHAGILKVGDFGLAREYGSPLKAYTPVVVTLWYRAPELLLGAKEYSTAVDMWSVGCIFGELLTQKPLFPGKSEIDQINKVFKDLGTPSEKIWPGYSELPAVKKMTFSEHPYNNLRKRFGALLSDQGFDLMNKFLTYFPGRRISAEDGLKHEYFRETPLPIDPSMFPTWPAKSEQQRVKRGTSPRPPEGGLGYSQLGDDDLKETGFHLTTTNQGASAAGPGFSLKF
Serine/threonine-protein kinase MRCK gamma (Homo sapiens), sequence (Q6DT37 whole entry): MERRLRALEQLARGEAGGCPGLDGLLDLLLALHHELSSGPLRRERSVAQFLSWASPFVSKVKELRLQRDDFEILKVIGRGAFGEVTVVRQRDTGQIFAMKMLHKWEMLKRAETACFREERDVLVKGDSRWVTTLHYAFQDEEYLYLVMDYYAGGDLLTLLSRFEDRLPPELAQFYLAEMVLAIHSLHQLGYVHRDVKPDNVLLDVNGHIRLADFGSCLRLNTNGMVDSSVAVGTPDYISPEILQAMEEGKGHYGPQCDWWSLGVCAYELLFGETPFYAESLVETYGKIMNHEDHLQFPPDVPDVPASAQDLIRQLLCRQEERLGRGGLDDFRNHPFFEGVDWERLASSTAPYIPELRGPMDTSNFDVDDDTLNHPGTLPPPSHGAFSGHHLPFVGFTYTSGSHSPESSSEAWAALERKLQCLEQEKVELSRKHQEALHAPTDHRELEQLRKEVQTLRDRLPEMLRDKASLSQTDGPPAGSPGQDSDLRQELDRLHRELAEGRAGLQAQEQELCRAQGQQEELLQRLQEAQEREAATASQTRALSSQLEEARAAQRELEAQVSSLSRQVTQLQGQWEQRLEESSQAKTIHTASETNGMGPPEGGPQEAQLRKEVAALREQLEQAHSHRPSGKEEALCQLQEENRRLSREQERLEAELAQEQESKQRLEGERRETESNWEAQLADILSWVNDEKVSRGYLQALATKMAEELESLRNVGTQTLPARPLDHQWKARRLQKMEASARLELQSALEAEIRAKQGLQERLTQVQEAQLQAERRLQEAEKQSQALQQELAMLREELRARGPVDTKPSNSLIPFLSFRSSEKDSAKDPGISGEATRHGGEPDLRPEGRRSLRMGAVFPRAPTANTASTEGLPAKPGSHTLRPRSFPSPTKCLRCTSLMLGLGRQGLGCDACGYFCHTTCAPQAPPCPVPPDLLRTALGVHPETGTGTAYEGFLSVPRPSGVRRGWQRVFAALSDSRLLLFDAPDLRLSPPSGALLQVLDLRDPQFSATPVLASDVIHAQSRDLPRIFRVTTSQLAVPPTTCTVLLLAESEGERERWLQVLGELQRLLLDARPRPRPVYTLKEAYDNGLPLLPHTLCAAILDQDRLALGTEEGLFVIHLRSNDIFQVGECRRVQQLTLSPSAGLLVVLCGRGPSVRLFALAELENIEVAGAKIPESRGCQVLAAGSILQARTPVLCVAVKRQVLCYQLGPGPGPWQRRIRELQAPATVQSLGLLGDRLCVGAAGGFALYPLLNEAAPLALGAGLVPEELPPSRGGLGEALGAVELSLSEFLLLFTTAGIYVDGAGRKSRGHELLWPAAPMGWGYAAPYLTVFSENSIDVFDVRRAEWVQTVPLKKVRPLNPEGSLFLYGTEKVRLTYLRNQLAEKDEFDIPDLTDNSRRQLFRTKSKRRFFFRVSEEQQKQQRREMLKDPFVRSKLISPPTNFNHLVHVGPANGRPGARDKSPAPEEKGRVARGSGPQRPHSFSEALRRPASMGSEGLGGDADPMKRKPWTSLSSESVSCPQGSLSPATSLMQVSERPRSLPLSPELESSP
Fibroblast growth factor receptor 2 (Homo sapiens), sequence (P21802 22-821 limits assumed): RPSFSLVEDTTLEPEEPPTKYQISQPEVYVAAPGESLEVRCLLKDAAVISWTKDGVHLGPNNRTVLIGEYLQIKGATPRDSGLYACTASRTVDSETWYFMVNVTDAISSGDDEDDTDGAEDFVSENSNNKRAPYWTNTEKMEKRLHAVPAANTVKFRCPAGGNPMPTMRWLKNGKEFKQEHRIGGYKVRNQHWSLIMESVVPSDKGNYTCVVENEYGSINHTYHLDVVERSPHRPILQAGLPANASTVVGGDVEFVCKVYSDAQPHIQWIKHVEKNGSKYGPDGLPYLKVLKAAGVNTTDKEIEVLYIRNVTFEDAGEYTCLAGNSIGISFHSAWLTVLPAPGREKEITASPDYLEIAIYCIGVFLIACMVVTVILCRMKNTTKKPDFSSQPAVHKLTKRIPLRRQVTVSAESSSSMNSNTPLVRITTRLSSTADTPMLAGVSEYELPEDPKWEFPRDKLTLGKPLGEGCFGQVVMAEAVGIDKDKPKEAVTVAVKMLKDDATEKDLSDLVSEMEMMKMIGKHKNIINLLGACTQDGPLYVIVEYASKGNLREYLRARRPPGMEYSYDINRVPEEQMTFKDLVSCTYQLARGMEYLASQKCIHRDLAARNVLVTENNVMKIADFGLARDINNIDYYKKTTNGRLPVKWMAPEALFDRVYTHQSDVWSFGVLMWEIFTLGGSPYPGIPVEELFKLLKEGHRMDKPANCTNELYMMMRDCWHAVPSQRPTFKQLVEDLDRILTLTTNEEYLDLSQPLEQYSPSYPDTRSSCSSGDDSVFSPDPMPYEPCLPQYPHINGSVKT
Serine/threonine-protein kinase OSR1 (Homo sapiens), sequence (O95747 2-527 limits assumed): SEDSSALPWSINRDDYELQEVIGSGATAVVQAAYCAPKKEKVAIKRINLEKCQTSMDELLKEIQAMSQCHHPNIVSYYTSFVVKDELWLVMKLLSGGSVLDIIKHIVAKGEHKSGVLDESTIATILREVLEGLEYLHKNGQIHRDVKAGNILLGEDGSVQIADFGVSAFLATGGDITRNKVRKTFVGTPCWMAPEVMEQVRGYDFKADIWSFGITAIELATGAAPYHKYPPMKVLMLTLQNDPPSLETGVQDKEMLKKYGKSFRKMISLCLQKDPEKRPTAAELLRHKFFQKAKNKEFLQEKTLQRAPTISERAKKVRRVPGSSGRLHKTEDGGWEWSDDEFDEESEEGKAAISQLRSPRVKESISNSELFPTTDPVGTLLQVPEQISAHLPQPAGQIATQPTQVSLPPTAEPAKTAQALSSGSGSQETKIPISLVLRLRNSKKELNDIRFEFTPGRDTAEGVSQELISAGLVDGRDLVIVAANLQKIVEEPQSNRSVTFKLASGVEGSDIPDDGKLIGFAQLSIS
D(1A) dopamine receptor, sequence (P21728 whole entry): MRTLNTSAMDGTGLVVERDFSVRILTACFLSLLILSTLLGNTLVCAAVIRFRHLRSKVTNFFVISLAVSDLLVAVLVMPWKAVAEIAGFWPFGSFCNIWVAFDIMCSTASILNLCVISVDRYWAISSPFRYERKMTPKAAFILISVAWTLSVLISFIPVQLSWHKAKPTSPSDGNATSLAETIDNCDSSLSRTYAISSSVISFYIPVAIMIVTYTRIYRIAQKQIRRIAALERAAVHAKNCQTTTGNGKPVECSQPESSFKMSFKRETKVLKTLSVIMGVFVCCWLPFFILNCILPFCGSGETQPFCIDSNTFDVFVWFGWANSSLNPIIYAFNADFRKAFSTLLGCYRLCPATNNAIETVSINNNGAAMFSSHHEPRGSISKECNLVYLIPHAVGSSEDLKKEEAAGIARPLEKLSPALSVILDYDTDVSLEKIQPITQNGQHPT
Mitogen-activated protein kinase 11 (Homo sapiens), sequence (Q15759 whole entry): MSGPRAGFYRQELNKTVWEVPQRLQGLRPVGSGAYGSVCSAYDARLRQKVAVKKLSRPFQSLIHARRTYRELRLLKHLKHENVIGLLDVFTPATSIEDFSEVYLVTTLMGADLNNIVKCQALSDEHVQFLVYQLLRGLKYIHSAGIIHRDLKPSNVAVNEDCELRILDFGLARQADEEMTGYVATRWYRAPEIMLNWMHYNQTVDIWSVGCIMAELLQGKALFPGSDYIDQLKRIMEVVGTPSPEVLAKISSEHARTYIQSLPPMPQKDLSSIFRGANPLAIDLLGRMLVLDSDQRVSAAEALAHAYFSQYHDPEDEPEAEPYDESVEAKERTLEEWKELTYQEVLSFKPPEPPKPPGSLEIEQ

Compound: CNC(=O)Nc1ccc(-c2nc(N3CC4CCC(C3)O4)c3cnn(C4CCC5(CC4)OCCO5)c3n2)cc1
% of control [1]: 82%

pXC50 (D(1A) dopamine receptor): 4.6 M
Compound: CCn1c(-c2nc3cc(C(=O)N4CCCC(N)C4)ccc3n2C)cc2ccccc21 (configuration not stated)

% of inhibition [2]: 9.2%
Compound: CC[C@@H]1[C@H](F)C(=O)N[C@@H]1COc1nccc2cc(C(N)=O)c(OC)cc12 [ZIMLOVISERTIB]

% of control ([3]; at 1 µM): 90%
% of control ([3]; at 5 µM): 97%
Compound: C=CC(=O)Nc1cccc(C(=O)Nc2ccc(Nc3cc(-c4[nH]c(SC)nc4C)ccn3)cc2)c1

Compound: Cc1cc(F)c(C(=O)Nc2cccc(-c3nncn3C(C)C)n2)cc1-n1cnc(C2CC2)c1
% of control [4]: 86%

Compound: COCC(=O)NC/C=C/c1ccc2ncnc(Nc3ccc(Oc4ccc(C)nc4)c(C)c3)c2c1 [CP-724714]
% of control [5]: 100%
% of control [6]: 90%
% of control [7]: 100%

Compound: COc1cc(Nc2nc(C)cc(-c3cnn4nc(OC)ccc34)n2)cc(C(F)(F)F)c1
% of control [8]: 83%

Compound: CN(C)C/C=C/C(=O)Nc1ccc(C(=O)N2CCCC(Nc3ncc(Cl)c(-c4c[nH]c5ccccc45)n3)C2)cc1 (configuration not stated)
% of control [9]: 100%
% of control [10]: 91%

Compound: CN(C)CCOc1ccc(-c2nc(-c3ccncc3)c(-c3ccc4c(c3)CC/C4=N\O)[nH]2)cc1
% of control [11]: 15%

Compound: Nc1cnc(N2CCc3cc(S(=O)(=O)Nc4c(F)cc(Cl)cc4F)cc(N4CCCC4=O)c32)nc1 [TP-020n]
% of control [12]: 100%

Compound: COc1cc(N(C)c2ccnc3ccc(C(F)(F)F)cc23)cc(OC)c1OC
% binding [13]: 72%
% binding [14]: 83%

Compound: O[C@H]1CC[C@H](Nc2ncc3nc(Nc4c(F)cc(F)cc4F)n([C@H]4CCOC4)c3n2)CC1
% of control [15]: 100%
